Consider one substance from US11799117B2, “Flow batteries incorporating a nitroxide compound within an aqueous electrolyte solution” (LOCKHEED MARTIN ENERGY, LLC, priority 2016, dated 2023).

Common to all, as to format: physicochemical
Data set [1] is described as follows: Aqueous solubility. The source says: (§1) First, it has a reduction potential of approximately 0.6 V versus a saturated calomel electrode, which is desirably higher than that of iron hexacyanide coordination compounds (increase of 0.25 V).
Data set [2] can be described thus: Reduction potential versus a saturated calomel electrode.
From the text: as §1

A short description of data set [3]: Conductivity of aqueous solution. The conditions noted are these: 1 M aqueous solution, pH 11, absence of other electrolytes.
From the text: as §1

Data set [4] is described as follows: Electrochemical kinetics by cyclic voltammetry. The conditions noted are these: also in alkaline aqueous electrolyte solutions; substantially reversible = anodic/cathodic peak difference less than about 0.3 V.
From the text: The high positive half-cell reduction potentials can provide significant advantages when incorporated in flow batteries, particularly in comparison to the commonly used iron hexacyanide coordination compounds. The high positive reduction potential can allow improved open circuit potential, voltage efficiency and current efficiency values to be realized. In addition, the improved solubility of many nitroxide compounds compared to iron hexacyanide coordination compounds allows improved energy density values to be realized.
The nitroxide compound defined by Structure 12 has the chemical name [2,2,6,6-tetramethyl-4-(sulfooxy)piperidin-1-yl]oxidanyl (also referred to herein as TEMPOSO). Without being bound by any theory or mechanism, it is believed that the sulfate (sulfooxy) group can stabilize the nitroxide group when the six-membered ring is in its “boat”, configuration. […] Under alkaline aqueous solutions, the deprotonated anionic form of Structure 12 can be stabilized after oxidation of the radical through lone pair donation from the sulfooxy group to the resulting nitrogen-centered cation.
as §1

Take “[2,2,6,6-tetramethyl-4-(sulfooxy)piperidin-1-yl]oxidanyl [TEMPOSO]”: the aqueous solubility in data set [1] is at least 1800 mM. In addition, in data set [2], the “increase of reduction potential over iron hexacyanide coordination compounds” value is 0.25 V and the reduction potential result is “approximately 0.6 V”. Moreover, the conductivity result in data set [3] was “about 50 mS/cm”. The electrochemical kinetics entry in data set [4] is on record as “substantially reversible”.
